The test has as its target USP1 (construct USP1 (I-785, GG670, 671AA)/UAF1 (I-677)-Flag) (Homo sapiens (Human), UniProt O94782, G670A/G671A). Kind of test: Ubiquitin-Rhodamine 110 assay for USP1 activity. Format: biochemical. As to conditions: USP1/UAF1 25 pM, Ub-Rh110 25 nM, 30 min preincubation. The method in brief:
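Two formats with the USP1/UAF1 complex and 25 nM ubiquitin-rhodamine 110 in pH 8.0 Tris buffer with calcium, glutathione and detergent. Single-point screening used 10 µM, 100 pM enzyme and 45 min. Inhibition was set against no-enzyme and DMSO wells.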

USP1 (construct USP1 (I-785, GG670, 671AA)/UAF1 (I-677)-Flag), sequence (O94782 whole entry G670A/G671A): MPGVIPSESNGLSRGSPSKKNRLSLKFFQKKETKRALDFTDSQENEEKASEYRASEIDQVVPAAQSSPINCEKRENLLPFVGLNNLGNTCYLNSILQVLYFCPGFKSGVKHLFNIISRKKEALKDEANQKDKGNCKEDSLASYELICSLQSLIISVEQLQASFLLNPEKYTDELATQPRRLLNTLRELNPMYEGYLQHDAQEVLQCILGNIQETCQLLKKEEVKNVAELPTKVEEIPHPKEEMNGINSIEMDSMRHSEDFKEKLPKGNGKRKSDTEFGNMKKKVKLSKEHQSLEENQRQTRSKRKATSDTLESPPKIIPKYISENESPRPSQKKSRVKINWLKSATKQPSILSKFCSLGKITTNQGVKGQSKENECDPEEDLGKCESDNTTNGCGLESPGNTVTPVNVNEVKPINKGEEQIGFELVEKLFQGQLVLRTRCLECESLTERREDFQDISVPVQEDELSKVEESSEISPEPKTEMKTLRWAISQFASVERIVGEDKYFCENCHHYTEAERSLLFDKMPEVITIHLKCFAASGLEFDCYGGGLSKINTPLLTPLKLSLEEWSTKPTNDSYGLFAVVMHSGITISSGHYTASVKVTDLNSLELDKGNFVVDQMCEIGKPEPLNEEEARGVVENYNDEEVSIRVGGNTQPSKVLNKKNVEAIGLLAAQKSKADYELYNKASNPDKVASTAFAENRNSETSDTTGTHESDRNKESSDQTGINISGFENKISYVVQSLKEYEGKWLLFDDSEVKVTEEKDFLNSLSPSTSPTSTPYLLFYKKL
USP1 (construct USP1 (I-785, GG670, 671AA)/UAF1 (I-677)-Flag), sequence (Q8TAF3 whole entry partner): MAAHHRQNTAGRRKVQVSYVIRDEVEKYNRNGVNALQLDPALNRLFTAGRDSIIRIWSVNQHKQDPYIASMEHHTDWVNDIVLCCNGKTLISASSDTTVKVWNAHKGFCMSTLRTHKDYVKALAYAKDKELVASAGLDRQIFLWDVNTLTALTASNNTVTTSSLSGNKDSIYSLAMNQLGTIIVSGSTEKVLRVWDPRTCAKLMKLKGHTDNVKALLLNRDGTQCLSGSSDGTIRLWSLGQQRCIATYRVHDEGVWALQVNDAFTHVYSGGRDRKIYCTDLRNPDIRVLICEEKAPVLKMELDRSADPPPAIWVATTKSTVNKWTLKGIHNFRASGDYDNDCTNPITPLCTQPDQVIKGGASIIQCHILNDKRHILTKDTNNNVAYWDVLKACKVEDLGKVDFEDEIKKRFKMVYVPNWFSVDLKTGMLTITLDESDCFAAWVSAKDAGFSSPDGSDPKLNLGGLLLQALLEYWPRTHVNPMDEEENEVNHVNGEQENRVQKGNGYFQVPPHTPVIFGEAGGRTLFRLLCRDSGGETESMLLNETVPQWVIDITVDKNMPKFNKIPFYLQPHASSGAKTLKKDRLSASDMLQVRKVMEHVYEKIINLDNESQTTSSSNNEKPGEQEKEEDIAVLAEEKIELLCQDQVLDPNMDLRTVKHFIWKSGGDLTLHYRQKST

The IC50 is the concentration that inhibits the measured activity by half. As to `CC(C)c1cccnc1-c1ncc2c(n1)n(Cc1ccc(-n3cccn3)cc1)c(=O)n2C` [Compound I-517, 9-(4-(1H-Pyrazol-1-yl)benzyl)-2-(3-isopropylpyridin-2-yl)-7-methyl-7,9-dihydro-8H-purin-8-one], the IC50 is over 2 µM.

In turn, `CC(C)c1ccccc1-c1ncc2[nH]c(=O)n(Cc3ccc(C(=O)N4CCOC[C@@H]4C)cc3)c2n1` [Compound I-405, (S)-2-(2-isopropylphenyl)-9-(4-(3-methylmorpholine-4-carbonyl)benzyl)-7,9-dihydro-8H-purin-8-one] showed an IC50 of 0.2 to 2 µM.

Consider `CC(C)c1ccccc1-c1ncc2c(n1)n(Cc1ccc(N(C)S(=O)(=O)c3nccn3C)cc1)c(=O)n2C` [Compound I-457, N-(4-((2-(2-isopropylphenyl)-7-methyl-8-oxo-7,8-dihydro-9H-purin-9-yl)methyl)phenyl)-N,1-dimethyl-1H-imidazole-2-sulfonamide], for which the IC50 was in the range of 0.05 to 0.2 µM.

Consider `CC(C)c1ncccc1-c1ncc2c(n1)n([C@H](C)c1ccc(-c3nc(C(F)(F)F)cn3C)cc1)c(=O)n2C` [Compound I-115, (R)-2-(2-isopropylpyridin-3-yl)-7-methyl-9-(1-(4-(1-methyl-4-(trifluoromethyl)-1H-imidazol-2-yl)phenyl)ethyl)-7,9-dihydro-8H-purin-8-one], for which the 50% inhibitory concentration (IC50) was under 0.05 µM.

`CC(C)c1ccccc1-c1ncc2c(n1)n(Cc1cccc(OCCCN(C)C)c1)c(=O)n2C` [Compound I-245, 9-(3-(3-(dimethylamino)propoxy)benzyl)-2-(2-isopropylphenyl)-7-methyl-7,9-dihydro-8H-purin-8-one] yielded a 50% inhibitory concentration (IC50) of over 2 µM.

In turn, `CC(C)c1ccccc1-c1ncc2[nH]c(=O)n(CC3CCN(S(=O)(=O)C4CC4)CC3)c2n1` [Compound I-461, 9-((1-(cyclopropylsulfonyl)piperidin-4-yl)methyl)-2-(2-isopropylphenyl)-7,9-dihydro-8H-purin-8-one] came in with a half-inhibitory concentration (IC50) of 0.05 to 0.2 µM.

For the molecule `Cn1cc(C(F)(F)F)nc1-c1ccc(Cn2c(=O)[nH]c3cnc(-c4cccnc4NC4CCC4)nc32)cc1` [Compound I-316, 2-(2-(cyclobutylamino)pyridin-3-yl)-9-(4-(1-methyl-4-(trifluoromethyl)-1H-imidazol-2-yl)benzyl)-7,9-dihydro-8H-purin-8-one], the IC50 lay within 0.05 to 0.2 µM.

With `CCCOc1ncccc1-c1ncc2[nH]c(=O)n(Cc3ccc(-c4nc(C(F)(F)F)cn4C)cc3)c2n1` [Compound I-413, 9-(4-(1-methyl-4-(trifluoromethyl)-1H-imidazol-2-yl)benzyl)-2-(2-propoxypyridin-3-yl)-7,9-dihydro-8H-purin-8-one], the concentration for half-maximal inhibition (IC50) was under 0.05 µM.

In turn, `COCCNC(=O)c1ccc(Cn2c(=O)[nH]c3cnc(-c4ccccc4C(C)C)nc32)cc1` [Compound I-352, 4-((2-(2-isopropylphenyl)-8-oxo-7,8-dihydro-9H-purin-9-yl)methyl)-N-(2-methoxyethyl)benzamide] gave an IC50 of 0.2 to 2 µM.

For `CC(C)c1ccccc1-c1ncc2[nH]c(=O)n(Cc3ccc(-c4cnn(CCN(C)C)c4)cc3)c2n1` [Compound I-520, 9-(4-(1-(2-(Dimethylamino)ethyl)-1H-pyrazol-4-yl)benzyl)-2-(2-isopropylphenyl)-7,9-dihydro-8H-purin-8-one], the IC50 fell in the range of 0.2 to 2 µM.

The molecule `CC(C)c1ccccc1-c1ncc2[nH]c(=O)n(Cc3ccc(C(=O)N(C)C(C)C)cc3)c2n1` [Compound I-375, N-isopropyl-4-((2-(2-isopropylphenyl)-8-oxo-7,8-dihydro-9H-purin-9-yl)methyl)-N-methylbenzamide] came in with a concentration for half-maximal inhibition (IC50) of under 0.05 µM.

`CC(C)c1ccccc1-c1ncc2[nH]c(=O)n(Cc3ccc(C4OCC4(C)C)cc3)c2n1` (stereo not shown) [Compound I-216, 9-(4-(3,3-dimethyloxetan-2-yl)benzyl)-2-(2-isopropylphenyl)-7,9-dihydro-8H-purin-8-one] registered an IC50 of 0.05 to 0.2 µM.

Molecule `COc1cc(C)n(-c2ccc(Cn3c(=O)n(C)c4cnc(-c5cccnc5C(C)C)nc43)cc2)n1` [Compound I-118, 2-(2-isopropylpyridin-3-yl)-9-(4-(3-methoxy-5-methyl-1H-pyrazol-1-yl)benzyl)-7-methyl-7,9-dihydro-8H-purin-8-one] had a half-inhibitory concentration (IC50) of under 0.05 µM.

`CC(C)c1ccccc1-c1ncc2[nH]c(=O)n(Cc3ccc(-c4ncc(C(F)(F)F)n4C)cc3)c2n1` [Compound I-219, 2-(2-isopropylphenyl)-9-(4-(1-methyl-5-(trifluoromethyl)-1H-imidazol-2-yl)benzyl)-7,9-dihydro-8H-purin-8-one] yielded an IC50 of under 0.05 µM.

The molecule `CC(C)c1ccccc1-c1ncc2[nH]c(=O)n(C3CCC34CN(S(=O)(=O)C(C)C)C4)c2n1` (stereo not shown) [Compound I-452, 2-(2-isopropylphenyl)-9-(2-(isopropylsulfonyl)-2-azaspiro[3.3]heptan-5-yl)-7,9-dihydro-8H-purin-8-one] displayed a half-maximal inhibitory concentration (IC50) of 0.2 to 2 µM.

On to `CNC(=O)c1ccc(Cn2c(=O)[nH]c3cnc(-c4ccccc4C(C)C)nc32)cc1` [Compound I-351, 4-((2-(2-isopropylphenyl)-8-oxo-7,8-dihydro-9H-purin-9-yl)methyl)-N-methylbenzamide], for which the half-inhibitory concentration (IC50) lay in the range of 0.05 to 0.2 µM.

`CC(C)c1ccccc1-c1ncc2[nH]c(=O)n(Cc3ccc(-n4cccn4)nc3)c2n1` [Compound I-146, 9-((6-(1H-pyrazol-1-yl)pyridin-3-yl)methyl)-2-(2-isopropylphenyl)-7,9-dihydro-8H-purin-8-one] registered a concentration for half-maximal inhibition (IC50) of 0.05 to 0.2 µM.

Turning to `CC(C)c1ccccc1-c1ncc2[nH]c(=O)n(Cc3ccc(-c4cnn(C)c4CC(=O)O)cc3)c2n1` [Compound I-254, 2-(4-(4-((2-(2-isopropylphenyl)-8-oxo-7,8-dihydro-9H-purin-9-yl)methyl)phenyl)-1-methyl-1H-pyrazol-5-yl)acetic acid], the IC50 was over 2 µM.

`Cc1cn(C)c(-c2ccc(Cn3c(=O)[nH]c4cnc(-c5cccc(F)c5C(C)C)nc43)cc2)n1` [Compound I-307, 9-(4-(1,4-dimethyl-1H-imidazol-2-yl)benzyl)-2-(3-fluoro-2-isopropylphenyl)-7,9-dihydro-8H-purin-8-one] yielded an IC50 of under 0.05 µM.

The molecule `CC(C)c1ccccc1-c1ncc2c(n1)n(Cc1ccc(-c3ncsc3CO)cc1)c(=O)n2C` [Compound I-305, 9-(4-(5-(hydroxymethyl)thiazol-4-yl)benzyl)-2-(2-isopropylphenyl)-7-methyl-7,9-dihydro-8H-purin-8-one] came in with an IC50 of under 0.05 µM.

Molecule `Cn1cc(C(F)(F)F)nc1-c1ccc(Cn2c(=O)[nH]c3cnc(-c4cccnc4N4CCC4)nc32)cc1` [Compound I-335, 2-(2-(azetidin-1-yl)pyridin-3-yl)-9-(4-(1-methyl-4-(trifluoromethyl)-1H-imidazol-2-yl)benzyl)-7,9-dihydro-8H-purin-8-one] gave an IC50 of 0.05 to 0.2 µM.

In turn, `CC(C)c1ncccc1-c1ncc2[nH]c(=O)n(Cc3ccc(-c4nc(C(F)(F)F)cn4C)cc3F)c2n1` [Compound I-84, 9-(2-fluoro-4-(1-methyl-4-(trifluoromethyl)-1H-imidazol-2-yl)benzyl)-2-(2-isopropylpyridin-3-yl)-7,9-dihydro-8H-purin-8-one] registered an IC50 of under 0.05 µM.

`CC(C)c1ccccc1-c1ncc2c(n1)n(CC1CCN(C(=O)NC3CC3)CC1)c(=O)n2C` [Compound I-479, N-cyclopropyl-4-((2-(2-isopropylphenyl)-7-methyl-8-oxo-7,8-dihydro-9H-purin-9-yl)methyl)piperidine-1-carboxamide] gave an IC50 of over 2 µM.

As for `Cc1cn(C(C)C)c(-c2ccc(Cn3c(=O)[nH]c4cnc(-c5ccccc5C(C)C)nc43)cc2)n1` [Compound I-537, 9-(4-(1-isopropyl-4-methyl-1H-imidazol-2-yl)benzyl)-2-(2-isopropylphenyl)-7,9-dihydro-8H-purin-8-one], the half-maximal inhibitory concentration (IC50) is under 0.05 µM.

`CC(=O)N1CCC(c2ccn(-c3ccc(Cn4c(=O)[nH]c5cnc(-c6cccc(F)c6C(C)C)nc54)cc3)n2)CC1` [Compound I-464, 9-(4-(3-(1-acetylpiperidin-4-yl)-1H-pyrazol-1-yl)benzyl)-2-(3-fluoro-2-isopropylphenyl)-7,9-dihydro-8H-purin-8-one] came in with an IC50 of 0.05 to 0.2 µM.

With `CC(C)c1ccccc1-c1ncc2c(n1)n(CC1CCN(c3nncs3)CC1)c(=O)n2C` [Compound I-492, 9-((1-(1,3,4-thiadiazol-2-yl)piperidin-4-yl)methyl)-2-(2-isopropylphenyl)-7-methyl-7,9-dihydro-8H-purin-8-one], the IC50 was over 2 µM.

On to `CC(C)c1ccccc1-c1ncc2[nH]c(=O)n([C@@H](C)c3ccc(-n4ccnn4)cc3)c2n1` [Compound I-147, (S)-9-(1-(4-(1H-1,2,3-triazol-1-yl)phenyl)ethyl)-2-(2-isopropylphenyl)-7,9-dihydro-8H-purin-8-one], for which the half-maximal inhibitory concentration (IC50) is 0.05 to 0.2 µM.

Molecule `COc1ncccc1-c1ncc2[nH]c(=O)n(Cc3ccc(-c4nc(C(F)(F)F)cn4C)cc3)c2n1` [Compound I-412, 2-(2-methoxypyridin-3-yl)-9-(4-(1-methyl-4-(trifluoromethyl)-1H-imidazol-2-yl)benzyl)-7,9-dihydro-8H-purin-8-one] gave an IC50 of under 0.05 µM.

Turning to `CCOc1ncccc1-c1ncc2[nH]c(=O)n(Cc3ccc(-n4cccn4)cc3)c2n1` [Compound I-19, 9-(4-(1H-pyrazol-1-yl)benzyl)-2-(2-ethoxypyridin-3-yl)-7,9-dihydro-8H-purin-8-one], the half-maximal inhibitory concentration (IC50) lay in the range of 0.2 to 2 µM.

Take `CC(C)c1ccccc1-c1ncc2[nH]c(=O)n(Cc3ccc(C(=O)N4CCCCC4C)cc3)c2n1` (stereo not shown) [Compound I-398, 2-(2-isopropylphenyl)-9-(4-(2-methylpiperidine-1-carbonyl)benzyl)-7,9-dihydro-8H-purin-8-one]: the concentration for half-maximal inhibition (IC50) was under 0.05 µM.

With `CC(C)NC(=O)Nc1ccc(Cn2c(=O)n(C)c3cnc(-c4ccccc4C(C)C)nc32)cc1` [Compound I-481, 1-isopropyl-3-(4-((2-(2-isopropylphenyl)-7-methyl-8-oxo-7,8-dihydro-9H-purin-9-yl)methyl)phenyl)urea], the IC50 lay in the range of 0.05 to 0.2 µM.
